From patent publication US12624044B2, “SMARCA degraders and uses thereof” (Kymera Therapeutics, Inc., priority 2019, dated 2026)

Target: SMARCA2 (Homo sapiens, UniProt P51531)
Experiment: MSD SMARCA2 degradation in NCI-H1299 cell line (24 h)
Type: cell-based
Parameters: HC: NCI-H1299 cells treated with DMSO; host or cells: NCI-H1299
Details: for Dmax: NCI-H1299, NCI-H1299 cells; for DC50: NCI-H1299 cells, read-out: SMARCA2 MSD H1299 degradation 24 h: External Abs-DC50
In short: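 SMARCA2 measured by MSD electrochemiluminescence (primary 0.3 ug/ml, secondary 1 ug/ml) on lysates from NCI-H1299 cells exposed to compounds for 24 h across nine 3-fold dilutions. Signal scaled from A2780 cells (no SMARCA2) to DMSO-treated H1299 controls, and maximal degradation after 24 h reported in letter categories.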

SMARCA2, sequence (P51531 whole entry): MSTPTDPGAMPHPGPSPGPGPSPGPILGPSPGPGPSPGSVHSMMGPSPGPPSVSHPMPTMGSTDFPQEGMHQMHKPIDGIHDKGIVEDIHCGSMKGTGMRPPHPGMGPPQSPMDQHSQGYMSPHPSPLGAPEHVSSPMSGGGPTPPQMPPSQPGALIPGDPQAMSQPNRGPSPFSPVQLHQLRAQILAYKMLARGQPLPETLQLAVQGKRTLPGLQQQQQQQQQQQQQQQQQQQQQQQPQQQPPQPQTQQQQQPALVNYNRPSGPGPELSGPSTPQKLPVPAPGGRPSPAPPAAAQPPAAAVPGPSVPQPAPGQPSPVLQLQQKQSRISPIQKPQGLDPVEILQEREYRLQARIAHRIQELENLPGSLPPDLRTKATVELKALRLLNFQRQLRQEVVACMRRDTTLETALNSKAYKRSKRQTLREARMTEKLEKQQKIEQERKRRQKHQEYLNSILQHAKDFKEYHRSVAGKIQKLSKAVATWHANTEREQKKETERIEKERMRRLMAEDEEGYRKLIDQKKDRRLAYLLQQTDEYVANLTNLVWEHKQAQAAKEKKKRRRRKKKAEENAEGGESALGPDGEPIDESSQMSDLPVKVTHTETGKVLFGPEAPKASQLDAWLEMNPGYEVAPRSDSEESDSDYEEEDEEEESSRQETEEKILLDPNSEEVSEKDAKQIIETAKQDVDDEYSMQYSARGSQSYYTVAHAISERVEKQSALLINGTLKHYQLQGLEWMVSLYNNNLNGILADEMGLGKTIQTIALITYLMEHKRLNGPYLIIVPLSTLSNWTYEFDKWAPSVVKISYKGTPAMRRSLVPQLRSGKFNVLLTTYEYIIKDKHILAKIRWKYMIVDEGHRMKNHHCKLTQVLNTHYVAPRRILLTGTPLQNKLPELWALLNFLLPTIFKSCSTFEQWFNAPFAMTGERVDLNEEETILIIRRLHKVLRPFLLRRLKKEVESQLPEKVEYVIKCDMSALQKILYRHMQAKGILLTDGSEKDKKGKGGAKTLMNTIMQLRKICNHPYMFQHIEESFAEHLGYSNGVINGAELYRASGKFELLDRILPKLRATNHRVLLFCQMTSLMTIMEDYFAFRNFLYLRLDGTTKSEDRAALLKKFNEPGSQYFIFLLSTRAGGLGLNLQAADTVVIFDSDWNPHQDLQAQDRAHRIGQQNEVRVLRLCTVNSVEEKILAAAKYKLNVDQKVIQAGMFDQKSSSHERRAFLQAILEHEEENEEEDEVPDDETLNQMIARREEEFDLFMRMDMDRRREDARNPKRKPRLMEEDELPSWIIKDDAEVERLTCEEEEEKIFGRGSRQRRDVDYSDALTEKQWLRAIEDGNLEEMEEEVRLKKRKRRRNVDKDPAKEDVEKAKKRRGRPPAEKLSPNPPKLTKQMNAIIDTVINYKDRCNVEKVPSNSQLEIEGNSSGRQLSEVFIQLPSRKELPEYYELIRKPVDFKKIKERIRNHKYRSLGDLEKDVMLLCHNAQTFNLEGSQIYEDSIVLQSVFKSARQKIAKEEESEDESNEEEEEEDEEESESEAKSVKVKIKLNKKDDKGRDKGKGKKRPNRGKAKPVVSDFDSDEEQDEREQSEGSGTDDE

Row | Dmax [%] | DC50 [nM] | Compound
1 |  | > 1000 | CN[C@@H](C)C(=O)N[C@H](C(=O)N1Cc2cc(OCCOCCOCCOCCOCCOCCNC(=O)c3ccc(C(C)n4cc(-c5cc(-c6ccccc6O)nnc5N)cn4)cc3)ccc2C[C@H]1C(=O)N[C@@H]1CCCc2ccccc21)C(C)(C)C (stereo partly shown) [I-206]
2 |  | > 1000 | CN[C@@H](C)C(=O)N[C@H](C(=O)N1Cc2cc(OCCOCCOCCOCCOCCNC(=O)c3ccc(C(C)n4cc(-c5cc(-c6ccccc6O)nnc5N)cn4)cc3)ccc2C[C@H]1C(=O)N[C@@H]1CCCc2ccccc21)C(C)(C)C (stereo partly shown) [I-207]
3 |  | > 1000 | CN[C@@H](C)C(=O)N[C@H](C(=O)N1Cc2cc(OCCOCCOCCOCCNC(=O)c3ccc(C(C)n4cc(-c5cc(-c6ccccc6O)nnc5N)cn4)cc3)ccc2C[C@H]1C(=O)N[C@@H]1CCCc2ccccc21)C(C)(C)C (stereo partly shown) [I-208]
4 |  | > 1000 | CN[C@@H](C)C(=O)N[C@H](C(=O)N1Cc2cc(OCCOCCOCCNC(=O)c3ccc(C(C)n4cc(-c5cc(-c6ccccc6O)nnc5N)cn4)cc3)ccc2C[C@H]1C(=O)N[C@@H]1CCCc2ccccc21)C(C)(C)C (stereo partly shown) [I-209]
5 | < 50 | > 1000 | Cc1ncsc1-c1ccc(CNC(=O)[C@@H]2C[C@@H](O)CN2C(=O)[C@@H](NC(=O)CCCCCN(C)Cc2ccc(N3CCN(c4cc(-c5ccccc5O)nnc4N)CC3)cc2)C(C)(C)C)cc1 [I-212, (2S,4R)-1-[(2S)-2-[6-[[4-[4-[3-amino-6-(2-hydroxyphenyl)pyridazin-4-yl]piperazin-1-yl]phenyl]methyl-methyl-amino]hexanoylamino]-3,3-dimethyl-butanoyl]-4-hydroxy-N-[[4-(4-methylthiazol-5-yl)phenyl]methyl]pyrrolidine-2-carboxamide]
6 | 70 to 90 | 501 to 1000 | Cc1ncsc1-c1ccc(CNC(=O)[C@@H]2C[C@@H](O)CN2C(=O)[C@@H](NC(=O)CCCCCCCCCN(C)Cc2ccc(N3CCN(c4cc(-c5ccccc5O)nnc4N)CC3)cc2)C(C)(C)C)cc1 [I-213]
7 | > 90 | 501 to 1000 | Cc1ncsc1-c1ccc(CNC(=O)[C@@H]2C[C@@H](O)CN2C(=O)[C@@H](NC(=O)CCCCCCCCCN2CCC(Cn3cc(-c4cc(-c5ccccc5O)nnc4N)cn3)CC2)C(C)(C)C)cc1 [I-214]
8 | < 50 | > 1000 | Cc1ncsc1-c1ccc(CNC(=O)[C@@H]2C[C@@H](O)CN2C(=O)[C@@H](NC(=O)CCCCCN2CCC(Cn3cc(-c4cc(-c5ccccc5O)nnc4N)cn3)CC2)C(C)(C)C)cc1 [I-215, (2S,4R)-1-((S)-2-(6-(4-((4-(3-amino-6-(2-hydroxyphenyl)pyridazin-4-yl)-1H-pyrazol-1-yl)methyl)piperidin-1-yl)hexanamido)-3,3-dimethylbutanoyl)-4-hydroxy-N-(4-(4-methylthiazol-5-yl)benzyl)pyrrolidine-2-carboxamide]
9 | 70 to 90 | 501 to 1000 | Cc1ncsc1-c1ccc(CNC(=O)[C@@H]2C[C@@H](O)CN2C(=O)[C@@H](NC(=O)CCCCCCCN(C)Cc2ccc(N3CCN(c4cc(-c5ccccc5O)nnc4N)CC3)cc2)C(C)(C)C)cc1 [I-216]
10 | > 90 | > 1000 | Cc1ncsc1-c1ccc(CNC(=O)[C@@H]2C[C@@H](O)CN2C(=O)[C@@H](NC(=O)CCCCCCCN2CCC(Cn3cc(-c4cc(-c5ccccc5O)nnc4N)cn3)CC2)C(C)(C)C)cc1 [I-217]
11 |  | > 1000 | Cc1ncsc1-c1ccc(CNC(=O)[C@@H]2C[C@@H](O)CN2C(=O)[C@@H](NC(=O)COCCOCCOCCNC(=O)CCCOc2cccc(N3C[C@H]4C[C@@H]3CN4/C=C/C(=O)c3ccccc3O)n2)C(C)(C)C)cc1 [I-218]
12 |  | > 1000 | Cc1ncsc1-c1ccc(CNC(=O)[C@@H]2C[C@@H](O)CN2C(=O)[C@@H](NC(=O)COCCOCCOCCNC(=O)CCCCCCCCOc2ccnc(N3C[C@H]4C[C@@H]3CN4/C=C/C(=O)c3ccccc3O)c2)C(C)(C)C)cc1 [I-220]
13 |  | > 1000 | Cc1ncsc1-c1ccc(CNC(=O)[C@@H]2C[C@@H](O)CN2C(=O)[C@@H](NC(=O)COCCOCCOCCOCCOCCOCCNC(=O)CCCCCCCCOc2ccnc(N3C[C@H]4C[C@@H]3CN4/C=C/C(=O)c3ccccc3O)c2)C(C)(C)C)cc1 [I-221]
14 |  | > 1000 | Cc1ncsc1-c1ccc(CNC(=O)[C@@H]2C[C@@H](O)CN2C(=O)[C@@H](NC(=O)COCCOCCOCCOCCOCCNC(=O)CCCCCCCCOc2ccnc(N3C[C@H]4C[C@@H]3CN4/C=C/C(=O)c3ccccc3O)c2)C(C)(C)C)cc1 [I-222]
15 |  | > 1000 | Cc1ncsc1-c1ccc(CNC(=O)[C@@H]2C[C@@H](O)CN2C(=O)[C@@H](NC(=O)COCCOCCOCCOCCNC(=O)CCCCCCCCOc2ccnc(N3C[C@H]4C[C@@H]3CN4/C=C/C(=O)c3ccccc3O)c2)C(C)(C)C)cc1 [I-223]
16 |  | > 1000 | Cc1ncsc1-c1ccc(CNC(=O)[C@@H]2C[C@@H](O)CN2C(=O)[C@@H](NC(=O)COCCOCCOCCNC(=O)c2ccc(C(C)n3cc(-c4cc(-c5ccccc5O)nnc4N)cn3)cc2)C(C)(C)C)cc1 (stereo partly shown) [I-224]

Further lines, the compound ahead of its results:

Row | Compound | Dmax [%] | DC50 [nM]
17 | Cn1c(=O)n(C2CCC(=O)NC2=O)c2ccc(CCCCCN3CCC[C@@H](Cn4cc(-c5cc(-c6ccccc6O)nnc5N)cn4)C3)cc21 (stereo partly drawn) [I-193, 3-[5-[5-[(3R)-3-[[4-[3-amino-6-(2-hydroxyphenyl)pyridazin-4-yl]pyrazol-1-yl]methyl]-1-piperidyl]pentyl]-3-methyl-2-oxo-benzimidazol-1-yl]piperidine-2,6-dione] | 50 to 70 | 501 to 1000
18 | Cn1c(=O)n(C2CCC(=O)NC2=O)c2cccc(CCCN3CCC(Cn4cc(-c5cc(-c6ccccc6O)nnc5N)cn4)CC3)c21 (stereo not shown) [I-194] | > 90 | < 100
19 | CN(CC#Cc1cnc(N2C3CCC2CN(c2cc(-c4ccccc4O)nnc2N)C3)nc1)CCCc1ccc2c(c1)n(C)c(=O)n2C1CCC(=O)NC1=O (stereo not shown) [I-195, 3-[5-[3-[3-[2-[3-[3-amino-6-(2-hydroxyphenyl)pyridazin-4-yl]-3,8-diazabicyclo[3.2.1]octan-8-yl]pyrimidin-5-yl]prop-2-ynyl-methyl-amino]propyl]-3-methyl-2-oxo-benzimidazol-1-yl]piperidine-2,6-dione] | > 90 | < 100
20 | Cn1c(=O)n(C2CCC(=O)NC2=O)c2ccc(CN3CCC(c4cnc(N5C6CCC5CN(c5cc(-c7ccccc7O)nnc5N)C6)nc4)CC3)cc21 (stereo not shown) [I-196] | > 90 | < 100
21 | CN[C@@H](C)C(=O)N[C@H](C(=O)N1CCC[C@H]1c1nc(C(=O)c2cccc(OCCOCCOCCNCc3ccc(-c4cc(-c5ccccc5O)nnc4N)cc3)c2)cs1)C1CCCCC1 [I-198, (S)—N—((S)-2-((S)-2-(4-(3-(2-(2-(2-((4-(3-amino-6-(2-hydroxyphenyl)pyridazin-4-yl)benzyl)amino)ethoxy)ethoxy)ethoxy)benzoyl)thiazol-2-yl)pyrrolidin-1-yl)-1-cyclohexyl-2-oxoethyl)-2-(methylamino)propanamide] | 50 to 70 | > 1000
22 | CN[C@@H](C)C(=O)N[C@H](C(=O)N1Cc2cc(OCCOCCOCCOCCNC(=O)CCCOc3cccc(N4C[C@H]5C[C@@H]4CN5/C=C/C(=O)c4ccccc4O)n3)ccc2C[C@H]1C(=O)N[C@@H]1CCCc2ccccc21)C(C)(C)C [I-199] |  | > 1000
23 | CN[C@@H](C)C(=O)N[C@H](C(=O)N1Cc2cc(OCCOCCOCCNC(=O)CCCOc3cccc(N4C[C@H]5C[C@@H]4CN5/C=C/C(=O)c4ccccc4O)n3)ccc2C[C@H]1C(=O)N[C@@H]1CCCc2ccccc21)C(C)(C)C [I-200] |  | > 1000
24 | Cc1ncsc1-c1ccc(CNC(=O)[C@@H]2C[C@@H](O)CN2C(=O)[C@@H](NC(=O)COCCOCCOCCOCCNC(=O)CCCOc2cccc(N3C[C@H]4C[C@@H]3CN4/C=C/C(=O)c3ccccc3O)n2)C(C)(C)C)cc1 [I-201] |  | > 1000
25 | CN[C@@H](C)C(=O)N[C@H](C(=O)N1Cc2cc(OCCOCCOCCOCCOCCOCCNC(=O)CCCCCCCCOc3ccnc(N4C[C@H]5C[C@@H]4CN5/C=C/C(=O)c4ccccc4O)c3)ccc2C[C@H]1C(=O)N[C@@H]1CCCc2ccccc21)C(C)(C)C [I-202] |  | > 1000
26 | CN[C@@H](C)C(=O)N[C@H](C(=O)N1Cc2cc(OCCOCCOCCOCCOCCNC(=O)CCCCCCCCOc3ccnc(N4C[C@H]5C[C@@H]4CN5/C=C/C(=O)c4ccccc4O)c3)ccc2C[C@H]1C(=O)N[C@@H]1CCCc2ccccc21)C(C)(C)C [I-203] |  | > 1000
27 | CN[C@@H](C)C(=O)N[C@H](C(=O)N1Cc2cc(OCCOCCOCCOCCNC(=O)CCCCCCCCOc3ccnc(N4C[C@H]5C[C@@H]4CN5/C=C/C(=O)c4ccccc4O)c3)ccc2C[C@H]1C(=O)N[C@@H]1CCCc2ccccc21)C(C)(C)C [I-204] |  | > 1000
28 | CN[C@@H](C)C(=O)N[C@H](C(=O)N1Cc2cc(OCCOCCOCCNC(=O)CCCCCCCCOc3ccnc(N4C[C@H]5C[C@@H]4CN5/C=C/C(=O)c4ccccc4O)c3)ccc2C[C@H]1C(=O)N[C@@H]1CCCc2ccccc21)C(C)(C)C [I-205] |  | > 1000
29 | Cc1ncsc1-c1ccc(CNC(=O)[C@@H]2C[C@@H](O)CN2C(=O)[C@@H](NC(=O)CCCCCN2CCC(c3cnc(N4C5CCC4CN(c4cc(-c6ccccc6O)nnc4N)C5)nc3)CC2)C(C)(C)C)cc1 [I-210, (2S,4R)-1-[(2S)-2-[6-[4-[2-[3-[3-amino-6-(2-hydroxyphenyl)pyridazin-4-yl]-3,8-diazabicyclo[3.2.1]octan-8-yl]pyrimidin-5-yl]-1-piperidyl]hexanoylamino]-3,3-dimethyl-butanoyl]-4-hydroxy-N-[[4-(4-methylthiazol-5-yl)phenyl]methyl]pyrrolidine-2-carboxamide] | > 90 | 501 to 1000
30 | Cc1ncsc1-c1ccc(CNC(=O)[C@@H]2C[C@@H](O)CN2C(=O)[C@@H](NC(=O)CN2CCC(c3cnc(N4C5CCC4CN(c4cc(-c6ccccc6O)nnc4N)C5)nc3)CC2)C(C)(C)C)cc1 [I-211, (2S,4R)-1-[(2S)-2-[[2-[4-[2-[3-[3-amino-6-(2-hydroxyphenyl)pyridazin-4-yl]-3,8-diazabicyclo[3.2.1]octan-8-yl]pyrimidin-5-yl]-1-piperidyl]acetyl]amino]-3,3-dimethyl-butanoyl]-4-hydroxy-N-[[4-(4-methylthiazol-5-yl)phenyl]methyl]pyrrolidine-2-carboxamide] | > 90 | 100 to 500
